For one assay, the target named is T1, human α thrombin (Homo sapiens, UniProt P00734).
T1 construct: human α thrombin; purchased Sigma
As to the kind of experiment: Thrombin inhibition. Type of assay: biochemical. The note with it: pH=7.5, 25° C., substrate H-(D)-Phe-Pro-Arg-pNA. As for the experimental part:
The kinetic measurements were carried out in 0.1M phosphate buffer that contained 0.2M sodium chloride and 0.5% polyethylene glycol 6000 at a pH=7.5 and 25° C. with the substrate H-(D)-Phe-Pro-Arg-pNA (Kabi) and human α thrombin (Sigma, specific activity=2150 NIH-units/mg) in polystyrene semi-microcuvettes in a total volume of 1 ml.
In a preliminary test each active substance was determined as to whether it inhibits thrombin rapidly or slowly. For this the reaction was firstly started by adding 0.03 NIH units thrombin to a 100 μM solution of the substrate and the active substance. In a second experiment, substrate was added to a solution of thrombin and the active substance which had been incubated for 5 minutes. The increase in the concentration of p-nitroaniline with time was monitored spectroscopically (UV-VIS spectrophotometer Lambda-2 from the Perkin-Elmer Company) at 405 nm for 12 min.
Since the measured curves obtained in both experiments were linear and parallel, the active substances of the following table are rapid thrombin inhibitors.
The inhibition constants Ki were then determined as follows. The substrate was used at concentrations of 100 μM, 50 μM, 30 μM, 20 μM and at each substrate concentration one measurement was carried out without inhibitor and three measurements were carried out in the presence of various concentrations of the inhibitors listed in the following table. The reactions were started by the addition of thrombin. The increase in absorbance at 405 nm due to the formation of p-nitroaniline was monitored over a time period of 12 minutes. Measurement points (time versus absorbance) were transferred to a PC at intervals of 20 seconds. The rates Vo (change in absorbance per second; measurements without inhibitor) and Vi (measurements with inhibitor) are determined by linear regression. Only that part of each measurement was used in which the substrate concentration had decreased by less than 15%. Km ' and Vmax were determined from a measurement series (constant inhibitor concentration, variable substrate concentrations) by a non-linear fit to the equation [formula] Finally Ki was calculated from the entire series of measurements by non-linear fitting to the equation [formula]
The inhibition constants Ki of the active substances are stated in the following table in units of μM.

Another assay has as its target T2, thrombin (Equus caballus, UniProt F7BFJ1).
T2 construct: mature thrombin (light and heavy chain) cut from prothrombin; clotting of human fibrinogen
As to the kind of experiment: Thrombin time. The note with it: 37° C.; for TT5 (thrombin time as a difference to the control): 5 μM active substance in human plasma; for TT50 (thrombin time as a difference to the control): 50 μM active substance in human plasma. Format: biochemical, horse thrombin, human plasma. How it is done:
A conventional test in clinical coagulation diagnostics is the thrombin time. This parameter measures the action of thrombin on fibrinogen and the formation of clots. Inhibitors of thrombin result in an extended thrombin time.
In order to obtain plasma 9 parts of fresh blood from healthy donors was mixed with one part of sodium citrate solution (0.11 mol/l) and it was centrifuged for 10 minutes at room temperature at ca. 3000 r.p.m. The plasma was removed by pipette and can be stored at room temperature for ca. 8 hours.
200 μl citrate plasma was incubated for 2 minutes at 37° C. in a ball coagulometer (KC10 from the Amelung Company). 10 μl dimethylsulfoxide (DMSO) or a solution of the active substance in DMSO was added to 190 μl pre-heated thrombin reagent (Boehringer Mannheim GmbH; contains ca. 3 U/ml horse thrombin and 0.0125M Ca^++). On addition of this 200 μl solution to the plasma a stopwatch was started and the time at which coagulation starts was determined.
The measured thrombin times in seconds are given in the following table as a difference to the control. The concentrations of the active substances in human plasma were 50 μM (TT50) and 5 μM (TT5).

pKi: −log10 of the molar value.

By pKi is commonly meant −log10 of the Ki, conventionally taken in molar units. For `Cc1cc(OCCNc2ccnnc2)cc(OS(=O)(=O)c2cccnc2)c1` [Example 4], the pKi on human α thrombin was 7.22. Further, at thrombin, the “TT5 (thrombin time as a difference to the control)” value was determined as 38 s and the “TT50 (thrombin time as a difference to the control)” value turned out to be 194 s.

In turn, `Cc1cc(OCCNc2ccnnc2)cc(OS(=O)(=O)c2cccc(C#N)c2)c1` [Example 9, 3-Cyanobenzenesulfonic acid-3-methyl-5-[2-(pyridazin-4-ylamino)-ethoxy]-phenyl ester] gave a pKi on human α thrombin of 6.85. Moreover, at thrombin, the “TT5 (thrombin time as a difference to the control)” value is 31 s and the “TT50 (thrombin time as a difference to the control)” value is 128 s.

On to `Cc1cc(NS(=O)(=O)c2ccccc2)cc(OCCNc2ccnnc2)c1` [Example 1, N-{3-methyl-5-[2-(pyridazin-4-ylamino)-ethoxy]-phenyl}-benzenesulfonamide], for which, on human α thrombin, the pKi was 7.15. Moreover, at thrombin, the “TT5 (thrombin time as a difference to the control)” value worked out at 23 s and the “TT50 (thrombin time as a difference to the control)” value amounted to 126 s.

As to `CCOC(=O)COc1cccc(S(=O)(=O)Oc2cc(C)cc(OCCNc3ccnnc3)c2)c1` [Example 13, (3-{3-Methyl-5-[2-(pyridazin-4-ylamino)-ethoxy]-phenoxy-sulfonyl}-phenoxy)-acetic acid ethyl ester], the pKi on human α thrombin was 7.05. Further, on thrombin, the “TT5 (thrombin time as a difference to the control)” value came to 0 s and the “TT50 (thrombin time as a difference to the control)” value came out at 49 s.

For the compound `Cc1cc(NS(=O)(=O)C2CCCCC2)cc(OCCNc2ccnnc2)c1` [Example 22, N-{3-Methyl-5-[2-(pyridazin-4-ylamino)-ethoxy]-phenyl}-cyclohexanesulfonamide], the pKi on human α thrombin was 6.46. Also, at thrombin, the “TT5 (thrombin time as a difference to the control)” value stood at 11 s and the “TT50 (thrombin time as a difference to the control)” value is 90 s.

The compound `Cc1cc(OCCNc2ccnnc2)cc(OS(=O)(=O)c2cccc(C(N)=S)c2)c1` [Example 10, 3-Thiocarbamoyl-benzenesulfonic acid-3-methyl-5-[2-(pyridazin-4-ylamino)-ethoxy]-phenyl ester] had a pKi at human α thrombin of 6.77. Also, at thrombin, the “TT5 (thrombin time as a difference to the control)” value turned out to be 13 s and the “TT50 (thrombin time as a difference to the control)” value is 71 s.

Regarding `Cc1cc(OCCNc2ccnnc2)cc(OS(=O)(=O)c2ccc(C#N)cc2)c1` [Example 11, 4-Cyanobenzenesulfonic acid-3-methyl-5-[2-(pyridazin-4-ylamino)-ethoxy]-phenyl ester], at human α thrombin, the pKi is 6.70. For the same compound, on thrombin, the “TT5 (thrombin time as a difference to the control)” value was determined as 18 s and the “TT50 (thrombin time as a difference to the control)” value stood at 81 s.
